Measurements: patent US8822517B2, “Arylosulfonamides for the treatment of CNS diseases” (Adamed SP. Z O.O., priority 2010, dated 2014)

Columns and labels:
[1] = target: histaminergic H1 receptor (Homo sapiens, UniProt P35367); test: Binding assay H1 (h), [3H]pyrilamine, HEK-293 cells; set-up: expressed in transfected cells; host or cells: HEK-293 cells; details: read-out: H1 [%]
In short: (§1)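 Binding read by scintillation counting. Non-specific component defined by excess unlabelled ligand and removed from total counts. Compounds at 1×10^−6 M.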

[2] = target: T1, serotoninergic 5-HT7 receptor (Homo sapiens, UniProt P34969); test: Cellular functional assay, serotoninergic 5-HT7 receptor (agonism/antagonism); type: cell-based; details: for activation at 1 µM: agonist effect, percent of control specific agonist response, compounds tested at 1×10^−6M, read-out: 5-HT7-ag [%]; for inhibition at 1 µM: read-out: 5-HT7-antag. [%]
T1 sequence (P34969 whole entry): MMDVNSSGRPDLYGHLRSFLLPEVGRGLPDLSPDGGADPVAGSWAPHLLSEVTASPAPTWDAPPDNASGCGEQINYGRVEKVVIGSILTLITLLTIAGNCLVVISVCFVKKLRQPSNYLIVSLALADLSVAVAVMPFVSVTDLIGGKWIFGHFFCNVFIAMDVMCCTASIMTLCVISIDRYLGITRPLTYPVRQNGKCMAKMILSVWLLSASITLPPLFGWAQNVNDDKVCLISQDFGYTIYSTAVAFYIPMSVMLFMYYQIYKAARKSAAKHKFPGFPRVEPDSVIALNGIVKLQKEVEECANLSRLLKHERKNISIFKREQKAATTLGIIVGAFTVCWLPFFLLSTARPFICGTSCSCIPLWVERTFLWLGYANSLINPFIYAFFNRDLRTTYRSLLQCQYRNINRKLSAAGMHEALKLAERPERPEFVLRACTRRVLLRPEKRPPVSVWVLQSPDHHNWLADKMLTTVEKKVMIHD
Procedure: (§2) The compounds were tested at the concentration of 1×10^−6M.
(§3) In the Tables ag refers to agonism, and antag to antagonism).

dopaminergic D3 receptor = dopaminergic D3 receptor (Homo sapiens, UniProt P35462); test: Binding assay D3 (h), [3H]methyl-spiperone, CHO cells; set-up: expressed in transfected cells; host or cells: CHO cells; details: read-out: D3 [%]
Chain of dopaminergic D3 receptor (P35462 whole entry): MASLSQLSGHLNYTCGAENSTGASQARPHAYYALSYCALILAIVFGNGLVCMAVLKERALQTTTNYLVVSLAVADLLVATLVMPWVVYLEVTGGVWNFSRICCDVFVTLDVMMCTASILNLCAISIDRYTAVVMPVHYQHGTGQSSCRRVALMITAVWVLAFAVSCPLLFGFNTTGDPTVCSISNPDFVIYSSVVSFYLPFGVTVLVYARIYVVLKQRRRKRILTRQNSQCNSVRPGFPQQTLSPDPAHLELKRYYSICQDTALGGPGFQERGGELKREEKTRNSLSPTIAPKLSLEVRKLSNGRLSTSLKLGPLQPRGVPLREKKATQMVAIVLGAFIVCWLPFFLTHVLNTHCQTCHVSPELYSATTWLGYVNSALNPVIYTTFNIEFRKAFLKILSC
In short: as §1

adrenergic α2C receptor = target: T2, adrenergic α2C receptor (Homo sapiens, UniProt P18825); test: Binding assay α2C (h), [3H]RX 821002, CHO cells; set-up: expressed in transfected cells; host or cells: CHO cells; details: read-out: α2C [%]
T2 sequence (P18825 1-462): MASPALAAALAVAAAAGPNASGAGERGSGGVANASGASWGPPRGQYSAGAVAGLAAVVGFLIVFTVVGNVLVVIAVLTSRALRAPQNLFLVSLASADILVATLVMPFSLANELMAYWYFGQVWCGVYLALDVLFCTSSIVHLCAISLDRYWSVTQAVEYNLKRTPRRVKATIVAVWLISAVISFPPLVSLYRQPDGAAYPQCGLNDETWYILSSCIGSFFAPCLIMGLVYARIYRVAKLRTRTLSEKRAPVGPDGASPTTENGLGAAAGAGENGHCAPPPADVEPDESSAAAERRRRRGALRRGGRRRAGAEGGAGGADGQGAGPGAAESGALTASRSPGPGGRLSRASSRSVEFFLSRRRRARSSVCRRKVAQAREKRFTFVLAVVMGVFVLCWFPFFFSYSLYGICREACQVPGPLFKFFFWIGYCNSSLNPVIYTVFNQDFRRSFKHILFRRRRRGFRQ
In short: as §1

[3] = target: T3, serotoninergic 5-HT6 receptor (Homo sapiens, UniProt P50406); test: Cellular functional assay, serotoninergic 5-HT6 receptor (agonism/antagonism); type: cell-based; details: for activation at 1 µM: agonist effect, percent of control specific agonist response, compounds tested at 1×10^−6M, read-out: 5-HT6-ag [%]; for inhibition at 1 µM: read-out: 5-HT6-antag. [%]
T3 sequence (P50406 whole entry): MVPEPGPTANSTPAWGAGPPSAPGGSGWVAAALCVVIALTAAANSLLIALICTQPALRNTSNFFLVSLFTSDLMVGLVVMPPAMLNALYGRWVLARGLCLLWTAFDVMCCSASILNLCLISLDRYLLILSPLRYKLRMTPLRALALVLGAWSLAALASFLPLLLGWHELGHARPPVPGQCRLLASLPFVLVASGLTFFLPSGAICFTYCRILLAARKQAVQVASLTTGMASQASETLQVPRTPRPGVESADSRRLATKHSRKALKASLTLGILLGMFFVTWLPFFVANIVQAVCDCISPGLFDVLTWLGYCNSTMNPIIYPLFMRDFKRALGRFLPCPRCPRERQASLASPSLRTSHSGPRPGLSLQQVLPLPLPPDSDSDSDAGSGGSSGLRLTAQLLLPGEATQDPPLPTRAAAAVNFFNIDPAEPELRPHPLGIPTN
Procedure: as §2, §3

[4] = target: T4, serotonine transporter (SERT) receptor (Homo sapiens, UniProt P31645); test: Binding assay SERT (h), [3H]imipramine, CHO cells; details: read-out: SERT [%]
T4 construct: expressed in transfected cells; host or cells: CHO cells
T4 sequence (P31645 whole entry): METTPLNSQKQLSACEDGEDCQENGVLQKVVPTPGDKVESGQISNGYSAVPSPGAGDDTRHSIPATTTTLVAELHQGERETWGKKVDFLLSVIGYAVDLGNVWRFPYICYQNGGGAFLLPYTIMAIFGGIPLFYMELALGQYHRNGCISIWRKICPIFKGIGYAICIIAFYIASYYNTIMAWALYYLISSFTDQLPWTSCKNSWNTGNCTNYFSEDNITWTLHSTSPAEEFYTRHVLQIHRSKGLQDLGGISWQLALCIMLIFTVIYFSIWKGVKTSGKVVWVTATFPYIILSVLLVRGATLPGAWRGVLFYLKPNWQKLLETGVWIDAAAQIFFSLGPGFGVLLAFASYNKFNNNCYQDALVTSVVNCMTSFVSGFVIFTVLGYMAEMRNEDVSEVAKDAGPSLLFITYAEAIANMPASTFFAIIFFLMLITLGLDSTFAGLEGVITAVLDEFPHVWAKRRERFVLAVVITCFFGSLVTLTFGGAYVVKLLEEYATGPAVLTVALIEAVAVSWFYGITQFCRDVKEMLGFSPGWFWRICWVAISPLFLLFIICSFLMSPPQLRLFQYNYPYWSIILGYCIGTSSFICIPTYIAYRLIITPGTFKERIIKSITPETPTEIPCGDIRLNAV
In short: as §1

[5] = target: serotoninergic 5-HT2A receptor (Homo sapiens, UniProt P28223); test: Binding assay 5-HT2A (h), [3H]ketanserin, HEK-293 cells; set-up: expressed in transfected cells; host or cells: HEK-293 cells; details: read-out: 5-HT2A
Chain of serotoninergic 5-HT2A receptor (P28223 whole entry): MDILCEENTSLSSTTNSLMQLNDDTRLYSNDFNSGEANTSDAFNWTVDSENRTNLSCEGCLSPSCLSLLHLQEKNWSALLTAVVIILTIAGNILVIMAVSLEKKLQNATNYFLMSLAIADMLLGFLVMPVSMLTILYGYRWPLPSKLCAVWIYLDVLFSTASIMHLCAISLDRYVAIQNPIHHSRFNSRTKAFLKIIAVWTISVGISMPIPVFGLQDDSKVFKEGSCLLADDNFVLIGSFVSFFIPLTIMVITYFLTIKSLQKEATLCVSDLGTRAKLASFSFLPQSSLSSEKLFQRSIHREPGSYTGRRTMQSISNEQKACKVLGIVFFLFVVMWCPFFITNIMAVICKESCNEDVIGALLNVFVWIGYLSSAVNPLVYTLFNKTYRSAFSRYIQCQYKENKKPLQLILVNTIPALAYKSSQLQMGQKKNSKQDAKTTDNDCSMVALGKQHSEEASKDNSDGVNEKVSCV
In short: as §1

[6] = target: T3, serotoninergic 5-HT6 receptor; test: Binding assay 5-HT6 (h), [3H]LSD, CHO cells; set-up: expressed in transfected cells; host or cells: CHO cells; details: read-out: 5-HT6
In short: as §1

[7] = target: T5, serotoninergic 5-HT1A receptor (Homo sapiens, UniProt P08908); test: Binding assay 5-HT1A (h), [3H]8-OH-DPAT, HEK-293 cells; set-up: expressed in transfected cells; host or cells: HEK-293 cells; details: read-out: 5-HT1A
T5 sequence (P08908 1-422): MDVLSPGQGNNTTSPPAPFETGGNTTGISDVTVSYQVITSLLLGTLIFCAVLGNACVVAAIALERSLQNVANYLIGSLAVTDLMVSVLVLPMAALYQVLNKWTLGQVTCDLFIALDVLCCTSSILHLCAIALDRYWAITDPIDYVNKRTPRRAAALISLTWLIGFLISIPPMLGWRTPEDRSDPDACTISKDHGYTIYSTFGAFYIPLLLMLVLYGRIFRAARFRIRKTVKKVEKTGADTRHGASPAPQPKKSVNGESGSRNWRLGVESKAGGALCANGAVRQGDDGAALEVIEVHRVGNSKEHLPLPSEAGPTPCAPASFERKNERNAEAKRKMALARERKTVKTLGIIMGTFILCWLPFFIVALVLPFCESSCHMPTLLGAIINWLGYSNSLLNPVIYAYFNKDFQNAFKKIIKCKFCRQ
In short: as §1

[8] = target: T1, serotoninergic 5-HT7 receptor; test: Binding assay 5-HT7 (h), [3H]LSD, CHO cells; set-up: expressed in transfected cells; host or cells: CHO cells; details: read-out: 5-HT7
In short: as §1

muscarinic M3 receptor = target: T6, muscarinic M3 receptor (Homo sapiens, UniProt P20309); test: Binding assay M3 (h), [3H]4-DAMP, CHO cells; details: read-out: M3 [%]
T6 construct: expressed in transfected cells; host or cells: CHO cells
T6 sequence (P20309 whole entry): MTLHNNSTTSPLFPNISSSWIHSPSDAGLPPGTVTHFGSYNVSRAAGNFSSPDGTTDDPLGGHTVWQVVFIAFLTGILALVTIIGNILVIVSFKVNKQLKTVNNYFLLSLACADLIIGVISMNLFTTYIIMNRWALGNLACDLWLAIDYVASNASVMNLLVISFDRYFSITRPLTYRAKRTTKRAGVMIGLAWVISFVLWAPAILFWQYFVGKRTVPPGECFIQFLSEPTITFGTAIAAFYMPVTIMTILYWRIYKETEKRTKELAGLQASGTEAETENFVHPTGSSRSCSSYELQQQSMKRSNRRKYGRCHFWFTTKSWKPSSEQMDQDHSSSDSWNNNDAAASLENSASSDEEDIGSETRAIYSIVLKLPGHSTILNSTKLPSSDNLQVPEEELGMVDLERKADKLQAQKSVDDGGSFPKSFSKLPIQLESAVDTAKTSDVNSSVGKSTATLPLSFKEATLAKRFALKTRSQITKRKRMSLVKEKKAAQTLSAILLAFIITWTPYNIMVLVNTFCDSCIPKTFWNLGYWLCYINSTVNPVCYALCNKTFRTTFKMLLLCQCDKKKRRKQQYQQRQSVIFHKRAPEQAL
In short: as §1

sigma σ receptor = test: Binding assay σ (non-selective), [3H]DTG, rat cerebral cortex; details: percent inhibition of control specific binding; compounds tested at 1×10^−6 M
In short: as §1

[9] = target: T7, serotoninergic receptor 5-HT2C (Homo sapiens, UniProt P28335); test: Binding assay 5-HT2C (h), [3H]mesulergine, HEK-293 cells; details: read-out: 5-HT2C [%]
T7 construct: expressed in transfected cells; host or cells: HEK-293 cells
T7 sequence (P28335 33-458): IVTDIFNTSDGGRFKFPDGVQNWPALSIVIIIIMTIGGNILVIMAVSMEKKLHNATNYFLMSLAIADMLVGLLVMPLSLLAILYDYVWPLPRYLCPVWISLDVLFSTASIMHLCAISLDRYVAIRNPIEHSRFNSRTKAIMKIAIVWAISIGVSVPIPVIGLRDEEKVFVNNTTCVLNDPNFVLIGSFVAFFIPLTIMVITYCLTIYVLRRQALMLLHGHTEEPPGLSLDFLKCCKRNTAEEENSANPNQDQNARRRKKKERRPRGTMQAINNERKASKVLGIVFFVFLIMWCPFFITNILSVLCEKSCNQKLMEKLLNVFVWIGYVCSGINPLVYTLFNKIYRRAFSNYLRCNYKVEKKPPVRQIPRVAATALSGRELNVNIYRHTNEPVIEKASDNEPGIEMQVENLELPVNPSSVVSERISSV
In short: as §1

dopaminergic D2 receptor [10] = target: T8, dopaminergic D2 receptor (Homo sapiens, UniProt P14416); test: Binding assay D2S (h), [3H]methyl-spiperone, HEK-293 cells; set-up: expressed in transfected cells; host or cells: HEK-293 cells; details: read-out: D2 [%]
In short: as §1
Target sequence in this assay (P14416 1-414 isoform P14416-2): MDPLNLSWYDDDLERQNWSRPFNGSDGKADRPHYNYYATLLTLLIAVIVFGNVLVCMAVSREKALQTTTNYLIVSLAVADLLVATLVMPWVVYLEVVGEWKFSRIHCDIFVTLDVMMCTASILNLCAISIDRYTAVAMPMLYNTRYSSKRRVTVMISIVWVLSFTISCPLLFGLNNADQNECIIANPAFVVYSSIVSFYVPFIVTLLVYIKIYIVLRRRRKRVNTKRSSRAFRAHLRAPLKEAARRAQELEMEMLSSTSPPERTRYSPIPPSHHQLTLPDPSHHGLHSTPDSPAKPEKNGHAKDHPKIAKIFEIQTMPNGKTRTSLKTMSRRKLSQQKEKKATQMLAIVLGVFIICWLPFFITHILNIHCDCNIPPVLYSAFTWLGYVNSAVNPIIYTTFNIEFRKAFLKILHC

adrenergic α1 receptor = test: Binding assay α1 (non-selective), [3H]prazosin, rat cerebral cortex; details: percent inhibition of control specific binding; compounds tested at 1×10^−6 M
In short: as §1

dopaminergic D2 receptor [11] = target: T8, dopaminergic D2 receptor; test: Cellular functional assay, dopaminergic D2 receptor (agonism/antagonism); type: cell-based; details: HEK293
Procedure: as §2, §3
Target sequence in this assay (P14416 whole entry): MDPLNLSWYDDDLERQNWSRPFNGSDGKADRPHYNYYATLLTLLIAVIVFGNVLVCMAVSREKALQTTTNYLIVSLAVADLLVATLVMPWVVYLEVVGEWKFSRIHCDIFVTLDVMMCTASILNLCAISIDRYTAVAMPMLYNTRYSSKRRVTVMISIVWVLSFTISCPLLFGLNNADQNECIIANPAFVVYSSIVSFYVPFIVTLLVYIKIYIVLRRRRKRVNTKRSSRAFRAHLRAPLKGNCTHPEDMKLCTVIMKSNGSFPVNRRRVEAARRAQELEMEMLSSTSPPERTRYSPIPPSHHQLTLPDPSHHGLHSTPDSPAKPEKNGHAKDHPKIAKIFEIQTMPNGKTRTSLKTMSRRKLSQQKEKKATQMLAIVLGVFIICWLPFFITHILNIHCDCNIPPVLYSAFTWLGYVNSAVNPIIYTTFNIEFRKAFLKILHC

Chain of histaminergic H1 receptor (P35367 whole entry): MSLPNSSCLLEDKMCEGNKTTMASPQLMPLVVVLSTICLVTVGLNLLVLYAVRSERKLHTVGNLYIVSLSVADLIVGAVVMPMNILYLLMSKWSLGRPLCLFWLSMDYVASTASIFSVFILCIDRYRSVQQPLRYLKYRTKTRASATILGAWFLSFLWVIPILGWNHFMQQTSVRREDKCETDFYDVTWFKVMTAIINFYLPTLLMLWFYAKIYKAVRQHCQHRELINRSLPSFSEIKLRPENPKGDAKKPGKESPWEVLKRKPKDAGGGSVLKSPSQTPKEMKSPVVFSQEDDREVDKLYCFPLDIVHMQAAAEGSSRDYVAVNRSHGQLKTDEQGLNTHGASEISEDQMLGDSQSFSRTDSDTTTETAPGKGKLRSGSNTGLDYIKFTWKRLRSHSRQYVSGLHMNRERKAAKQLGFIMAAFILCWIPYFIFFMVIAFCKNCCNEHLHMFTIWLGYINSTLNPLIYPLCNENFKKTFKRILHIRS

Structure (SMILES) | inhibition at 1 µM [1] [%] | activation at 1 µM [2] [%] | inhibition at 1 µM [2] [%] | inhibition at 1 µM (dopaminergic D3 receptor) [%] | inhibition at 1 µM (adrenergic α2C receptor) [%] | activation at 1 µM [3] [%] | inhibition at 1 µM [3] [%] | inhibition at 1 µM [4] [%] | inhibition at 1 µM [5] [%] | inhibition at 1 µM [6] [%] | inhibition at 1 µM [7] [%] | inhibition at 1 µM [8] [%] | inhibition at 1 µM (muscarinic M3 receptor) [%] | σ [%] (sigma σ receptor) | inhibition at 1 µM [9] [%] | inhibition at 1 µM (dopaminergic D2 receptor [10]) [%] | α1 [%] (adrenergic α1 receptor) | activation at 1 µM (dopaminergic D2 receptor [11]; agonist effect, percent of control specific agonist response (3 μM dopamine for control), 1×10^−6 M, D2S (h), HEK-293 cells, read-out: D2-ag [%]) [%] | inhibition at 1 µM (dopaminergic D2 receptor [11]; read-out: D2-antag. [%]) [%]
O=S(=O)(NCCCN1CCC(c2noc3cc(F)ccc23)CC1)c1cccc2ccccc12 [Compound 20, N-[3-[4-(6-Fluoro-1,2-benzoxazol-3-yl)piperidin-1-yl]propyl]naphthalene-1-sulphonamide] | 78 | -1 | 101 | 96 | 99 | -2 | 23 | 85 | 100 | 85 | 71 | 101 | -9 | 81 | 75 | 98 | 99 |  | 
O=S(=O)(NCCCN1CCC(c2noc3cc(F)ccc23)CC1)c1ccc2ccccc2c1 [Compound 21, N-[3-[4-(6-Fluoro-1,2-benzoxazol-3-yl)piperidin-1-yl]propyl]naphthalene-2-sulphonamide] | 90 | 0 | 98 | 97 | 98 | -2 | 39 | 46 | 100 | 93 | 77 | 99 | 2 | 82 | 87 | 99 | 97 |  | 
O=S(=O)(NCCN1CCC(c2noc3cc(F)ccc23)CC1)c1cccc2ccccc12 [Compound 23, N-[2-[4-(6-Fluoro-1,2-benzoxazol-3-yl)piperidin-1-yl]ethyl]naphthalene-1-sulphonamide] | 67 | 0 | 88 | 93 | 99 | 0 | 1 | 68 | 100 | 69 | 85 | 96 | -2 | 82 | 44 | 97 | 97 |  | 
O=S(=O)(NCCN1CCC(c2noc3cc(F)ccc23)CC1)c1ccc2ccccc2c1 [Compound 24, N-[2-[4-(6-Fluoro-1,2-benzoxazol-3-yl)piperidin-1-yl]ethyl]naphthalene-2-sulphonamide] | 56 | 0 | 99 | 98 | 99 | 2 | 9 | 53 | 100 | 76 | 80 | 95 | 10 | 80 | 65 | 99 | 97 |  | 
Cc1cccc(S(=O)(=O)NCCN2CCC(c3noc4cc(F)ccc34)CC2)c1 [Compound 25, N-[2-[4-(6-Fluoro-1,2-benzoxazol-3-yl)piperidin-1-yl]ethyl]-3-methylbenzenesulphonamide] | 62 | -1 | 97 | 94 | 98 | 0 | 6 | 20 | 100 | 71 | 92 | 98 | 6 | 76 | 32 | 96 | 98 |  | 
O=S(=O)(NCCCCN1CCN(c2cccc3[nH]ccc23)CC1)c1csc2ccccc12 [Compound 32, N-{4-[4-(1H-Indol-4-yl)piperazin-1-yl]butyl}-1-benzothiophene-3-sulphonamide] |  |  |  |  |  |  |  |  |  | 23 |  |  |  |  |  | 101 |  | 35 | 89
